Experimental data: ChEMBL document CHEMBL3880399 (2004)
The source made the active and inactive calls. No cut-off for these calls is given here.

How the values were obtained:
[1] = system: Mus musculus; assay: Reduction in d-amphetamine-induced hyperactivity in sc dosed mouse; type: functional
[2] = system: Rattus norvegicus; assay: Antipsychotic activity in rat assessed as reduction in MK-801-induced locomotor behaviors at 1 mg/kg, ip; type: functional, organism-based
[3] = system: Homo sapiens; assay: Potentiation of levadopa-induced improvements in parkinsonian symptoms in parkinsonian patient administered orally once daily for four weeks with dose escalating once each week (30 mg on week2, 70 mg on week3, 150 mg on week 4 and 300 mg on week 5) in placebo controlled study lasting for 5 weeks measured on first day of each dose escalation; type: functional

Structure (SMILES): O=C(CCCN1CCC(O)(c2ccc(Cl)cc2)CC1)c1ccc(F)cc1
- Activity [1]: Dose-dependent effect

Structure (SMILES): CN1CCN(C2=Nc3cc(Cl)ccc3Nc3ccccc32)CC1 [CLOZAPINE]
- Activity [2]: Active
- EC50 [3]: 6.4 nM
